According to patent US7989502B2, “Intranasal delivery of modafinil” (SRI International, priority 2009, dated 2011):

Tests used:
male Sprague Dawley rats = assay: Intranasal drug delivery snort model, EEG/EMG sleep-wake behavior in rats; type: in vivo, rat
Experimental: Formulation of Intranasal Drugs. Modafinil (Sigma) was solubilized using LME comprised of equal amounts of olive oil and phosphatidyl serine sonicated in succinate buffer, pH 8; modafinil concentrations 0.2 and 2 mg/ml. Control rats received either saline alone or lipid emulsion in succinate buffer, pH 8
Animals and surgery. Anesthetized male Sprague Dawley rats (250-350 g) were implanted with sleep recording electrodes to monitor electroencephalographic (EEG) and electromyographic (EMG) activities. A femoral vein catheter was also implanted and dorsally extended subcutaneously to exit at the posterior end of the EEG/EMG implant. The rats were individually housed in a controlled environment (12 h lights on/off; lights on, 8 am) with access to food and water ad libitum. The animals were allowed to recover for approximately 7-10 days following surgery and habituated to the recording chambers. Baseline behavior was continuously recorded for 48 to 60 h prior to experiment initiation and for at least 24 h post drug administration. Rats were sacrificed by pentobarbital administration (200 mg/kg, i.v.) into the femoral catheter without handling the animal, Greco et al., Neuroscience. 1999; 93(4):1369-74; Vazquez et al., J Cell Biochem. 2008 Dec. 15; 105(6):1472-84.
Intranasal drug delivery—snort model. Three hours into the lights on period, each rat was anesthetized with ˜3% isoflurane in O2 and placed on its back. The head and neck of the rat remained flat and horizontal throughout the entire procedure to prevent any drug from draining down the back of the throat. Reflexes were monitored periodically and anesthetic level was reduced to ˜1.5% isoflurane in O2 for anesthesia maintenance. Each drug was given in 6-7 ul administered with a manual pipette every 2 minutes into alternating nostrils (total volume=50 ul). Two minutes after the last drop was administered, the rat was removed from anesthesia, reconnected to the tethering cable and placed in the recording chamber. The effect of intranasal drug delivery on sleep-wake behavior was monitored for 24 h post-intranasal drug delivery.
Results. Rats awakened within one minute post modafinil administration. Control rats awoke within 3-5 minutes after termination of anesthesia. EEG and EMG activity during wakefulness, slow wave sleep (SWS), and rapid eye movement (REM) sleep were captured digitally, and subsequently scored manually in 10 sec epochs, averaged into one minute bins and represented graphically by hour for approximately 5 to 8 h post drug delivery. Representative individual hypnograms show the wake-promoting effects via intranasal delivery directly to the CNS. Modafinil induced wakefulness in rats at a 100-fold lower dose via our intranasal route than what has been previously published using traditional routes of administration (ie. i.v., oral).
We designed protocols to further optimize concentrations of sleep and wake promoting drugs for intranasal delivery. In exemplary experiments, the drugs are administered to rats in the following concentrations: Modafinil: 0.2 mg/ml (n=3), 0.1 mg/ml (n=3), 0 (LME only, n=3), and the rats instrumented and tested as detailed above.
Sleep Scoring and Statistical Analyses. EEG/EMG recordings are scored using SleepSign™ for Animals (Kissei Comtec, Irvine, Calif.), manually verified for accuracy and stored to disk. Waking is identified by the presence of desynchronized EEG readings and high EMG activity. SWS is identified by high amplitude slow waves together with a low EMG tone relative to waking. REM sleep is identified by the presence of regular theta activity coupled with low EMG relative to SWS. REM sleep is scored only when it follows at least a 15 s episode of SWS. All sleep-wake parameters are analyzed for each hour of the recording periods, then averaged to yield 24 h baseline estimates. A similar analysis is performed prior to and post intranasal drug administration. […]

healthy male subjects = assay: Intranasal modafinil in chronically sleep deprived humans (simulated military operation, 18 h continuous work); type: in vivo, human; details: 2, 10, 50 and 200 ug groups, VIANASE or OPTINOSE, given 9 h into the work period; versus LME-only and systemically-administered modafinil controls
Experimental: 4. Efficacy of our intranasal drug delivery in chronically sleep deprived humans is also readily confirmed using established methods. Our preferred protocol is based on the results of a series of experiments that tested the treatment efficacy of a hypnotic-stimulant combination to maintain sleep quality, performance, and alertness (Batéjat, et al., Aviat Space Environ Med. 2006 May; 77(5):515-25). Here, healthy male subjects are given zolpidem then allowed to sleep for 6 h prior to being subjected to a simulated military operation of 18 h continuous work. Modafinil (2, 10, 50 and 200 ug dosage treatment groups) is administered using (a) VIANASE electronic atomizer (Bothell, Wash.) or (b) OPTINOSE nasal delivery system (Oslo, Norway) 9 h into the work period. The effects of drugs on sleep-wake behavior (EEG recordings), cortical activation (Critical Flicker Frequency test) and performance levels (reaction time, memory search, attention, dual task, computerized Stroop tests) are monitored.

rats = assay: Chronic sleep deprivation paradigm, EEG/EMG recordings and roto-rod performance; type: in vivo, rat; details: rats deprived of sleep 6 h on 3 consecutive days
Experimental: In our chronic sleep deprivation paradigm rats are deprived of sleep for 6 h on 3 consecutive days starting at the beginning of the lights on period, when the pressure to sleep is maximal. The sleep deprivation begins with the administration of modafinil and is immediately followed by roto-rod testing. EEG/EMG recordings resumes once the rats are returned to the cage. If needed, the rats are kept awake for the remainder of the deprivation period by gentle handling. At the end of the sleep deprivation, the rats are again subjected to roto-rod testing. The sleep deprivation protocol is executed for 3 consecutive days. On the third day, half of the rats are sacrificed immediately following the sleep deprivation period. A second group of rats are sacrificed after 1-2 h of recovery sleep (RS). […]
In this protocol, the intranasal delivery of modafinil is assayed by two behavioral indicies—EEG/EMG recordings of sleep-wakefulness and performance (wheel running, roto-rod assay). […] The EEG/EMG data is analyzed as detailed above. For the roto-rod testing, the amount of time each rat spends on the wheel is analyzed and compared to control. Qualitative and quantitative analysis sets are generated and descriptive statistical comparisons and two-way ANOVA with post hoc multiple comparisons are used to evaluate changes in behavior/wheel running as a function of the day and drug, assuming equal variances.

NC(=O)C[S+]([O-])C(c1ccccc1)c1ccccc1 (stereo not drawn) [Modafinil]
effective dose, body-weight equivalent (male Sprague Dawley rats; 2.5 ug to a 350 g rat): 7.14 µg/kg | translated human dose (male Sprague Dawley rats; based on a human weighing 70 kg, from the rat effective dose): 0.5 mg | effective dose administered (male Sprague Dawley rats; in 50 ul of LME to a 350 g rat, intranasal): 2.5 µg | fold lower dose inducing wakefulness via intranasal route than published for traditional routes (i.v., oral) (male Sprague Dawley rats; rat, intranasal LME): 100 fold | time to awakening post modafinil administration (male Sprague Dawley rats; rat, intranasal snort delivery in LME under isoflurane anesthesia, control rats awoke within 3-5 minutes after termination of anesthesia): one | effective concentration of modafinil in the lipid microemulsion (male Sprague Dawley rats; rat, intranasal, 50 ul of LME): 0.05 mg/mL | effect of attempting to deliver an intranasal dose comparable to that given orally (male Sprague Dawley rats; rat, under isoflurane anesthesia): the excitatory effects overcame the anesthesia and the animals woke up | performance and alertness throughout the 18 h work period (healthy male subjects): maintain elevated performance and alertness over LME-only negative controls and even over systemically-administered modafinil positive-controls | effectiveness of intranasal delivery under chronic stressful conditions (rats): Our results confirm the effectiveness of intranasal delivery of modafinil under chronic stressful conditions
